US20220386606A1, “SPECIFICALLY SUBSTITUTED 3-PHENYL-5-SPIROCYCLOPENTYL-3-PYRROLIN-2-ONES AND THEIR USE AS HERBICIDES” (Bayer Aktiengesellschaft, priority 2019, published 2022)

Tests used:
[1] = test system: ALOMY; test: Pre-emergence herbicidal action against ALOMY; format: in vivo, Alopecurus myosuroides; conditions: 320 g/ha, scored visually after 3 weeks vs untreated controls
Outline: (§1)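 Sandy loam, wood-fiber pots, seeds covered with soil. Spray onto soil surface: aqueous WP/EC, 600 to 800 L/ha, 0.2% wetting agent. Greenhouse 3 weeks; visual % score vs untreated controls.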

[2] = test system: AVEFA; test: Pre-emergence herbicidal action against AVEFA; format: in vivo, Avena fatua; conditions: 320 g/ha, scored visually after 3 weeks vs untreated controls
Outline: as §1

[3] = test system: DIGSA; test: Pre-emergence herbicidal action against DIGSA; format: in vivo, Digitaria sanguinalis; conditions: 320 g/ha, scored visually after 3 weeks vs untreated controls
Outline: as §1

[4] = test system: ECHCG; test: Pre-emergence herbicidal action against ECHCG; format: in vivo, Echinochloa crus-galli; conditions: 320 g/ha, scored visually after 3 weeks vs untreated controls
Outline: as §1

[5] = test system: LOLRI; test: Pre-emergence herbicidal action against LOLRI (Table 8, titled post-emergence at 320 g/ha); format: in vivo, Lolium rigidum; conditions: table stands in the pre-emergence section
Outline: as §1

[6] = test system: SETVI; test: Pre-emergence herbicidal action against SETVI; format: in vivo, Setaria viridis; conditions: 320 g/ha, scored visually after 3 weeks vs untreated controls
Outline: as §1

[7] = test system: VIOTR; test: Pre-emergence herbicidal action against VIOTR; format: in vivo, Viola tricolor; conditions: 320 g/ha
Outline: as §1

[8] = test system: ALOMY; test: Post-emergence herbicidal action against ALOMY; format: in vivo, Alopecurus myosuroides; conditions: 80 g/ha, visual assessment after about 3 weeks
Outline: (§2)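 Weeds and crops grown in sandy loam in the greenhouse, treated post-emergence at the one-leaf stage (2–3 weeks after sowing). WP or EC formulations sprayed as aqueous suspension/emulsion at 600–800 l/ha water with 0.2% wetting agent. Visual % activity scored after about 3 weeks versus untreated controls (100% = dead, 0% = like control).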

[9] = test system: AVEFA; test: Post-emergence herbicidal action against AVEFA; format: in vivo, Avena fatua; conditions: 80 g/ha, visual assessment after about 3 weeks
Outline: as §2

[10] = test system: ECHCG; test: Post-emergence herbicidal action against ECHCG; format: in vivo, Echinochloa crus-galli; conditions: 80 g/ha, visual assessment about 3 weeks after treatment vs untreated controls
Outline: as §2

[11] = test system: LOLRI; test: Post-emergence herbicidal action against LOLRI; format: in vivo, Lolium rigidum; conditions: 80 g/ha, visual assessment about 3 weeks after treatment vs untreated controls
Outline: as §2

[12] = test system: VIOTR; test: Post-emergence herbicidal action against VIOTR; format: in vivo, Viola tricolor; conditions: 80 g/ha, visual assessment about 3 weeks after treatment vs untreated controls
Method: Seeds of monocotyledonous and dicotyledonous weed and crop plants are laid out in sandy loam soil in wood-fiber pots, covered with soil and cultivated in a greenhouse under good growth conditions. 2 to 3 weeks after sowing, the test plants are treated at the one-leaf stage. The compounds of the invention, formulated in the form of wettable powders (WP) or as emulsion concentrates (EC), are then sprayed onto the green parts of the plants as aqueous suspension or emulsion at a water application rate equating to 600 to 800 l/ha with addition of 0.2% wetting agent. After the test plants have been left to stand in the greenhouse under optimal growth conditions for about 3 weeks, the action of the preparations is assessed visually in comparison to untreated controls (herbicidal action in percent (%): 100% activity=the plants have died, 0% activity=like control plants).

[13] = test system: ABUTH; test: Pre-emergence herbicidal action against ABUTH; format: in vivo, Abutylon threophrasti; conditions: 320 g/ha
Excerpt: Seeds of monocotyledonous and dicotyledonous weed plants and crop plants are laid out in sandy loam soil in wood-fiber pots and covered with soil. The compounds of the invention, formulated in the form of wettable powders (WP) or as emulsion concentrates (EC), are then applied to the surface of the covering soil as aqueous suspension or emulsion at a water application rate equating to 600 to 800 L/ha with addition of 0.2% wetting agent.
After the treatment, the pots are placed in a greenhouse and kept under good growth conditions for the trial plants. The damage to the test plants is scored visually after a test period of 3 weeks by comparison with untreated controls (herbicidal activity in percent (%): 100% activity=the plants have died, 0% activity=like control plants).

[14] = test system: AMARE; test: Pre-emergence herbicidal action against AMARE; format: in vivo, Amaranthus retroflexus; conditions: 320 g/ha
Outline: as §1

[15] = test system: MATIN; test: Pre-emergence herbicidal action against MATIN; format: in vivo; conditions: 320 g/ha
Outline: as §1

[16] = test system: POLCO; test: Pre-emergence herbicidal action against POLCO; format: in vivo, Polygonum convolvulus; conditions: 320 g/ha
Outline: as §1

[17] = test system: VERPE; test: Pre-emergence herbicidal action against VERPE; format: in vivo, Veronica persica; conditions: 320 g/ha
Outline: as §1

[18] = test system: DIGSA; test: Post-emergence herbicidal action against DIGSA; format: in vivo, Digitaria sanguinalis; conditions: 80 g/ha, visual assessment about 3 weeks after treatment vs untreated controls
Outline: as §2

[19] = test system: SETVI; test: Post-emergence herbicidal action against SETVI; format: in vivo, Setaria viridis; conditions: 80 g/ha, visual assessment about 3 weeks after treatment vs untreated controls
Outline: as §2

[20] = test system: ABUTH; test: Post-emergence herbicidal action against ABUTH; format: in vivo, Abutylon threophrasti; conditions: 80 g/ha, visual assessment about 3 weeks after treatment vs untreated controls
Outline: as §2

SMILES | Pre-emergence action against ALOMY in % [1] | Pre-emergence action against AVEFA in % [2] | Pre-emergence action against DIGSA in % [3] | Pre-emergence action against ECHCG in % [4] | Pre-emergence herbicidal action against LOLRI in % [5] | Pre-emergence action against SETVI in % [6] | Pre-emergence action against VIOTR in % [7] | Post-emergence action against ALOMY in % [8] | Post-emergence action against AVEFA in % [9] | Post-emergence action against ECHCG in % [10] | Post-emergence action against LOLRI in % [11] | Post-emergence action against VIOTR in % [12] | Pre-emergence action against ABUTH in % [13] | Pre-emergence action against AMARE in % [14] | Pre-emergence action against MATIN in % [15] | Pre-emergence action against POLCO in % [16] | Pre-emergence action against VERPE in % [17] | Post-emergence action against DIGSA in % [18] | Post-emergence action against SETVI in % [19] | Post-emergence action against ABUTH in % [20]
C=CCOCC1CCC2(C1)NC(=O)C(c1c(C)cc(C#CC)cc1OC)=C2O (stereo not drawn) [Example I-47] | 100% | 90% | 100% | 100% | 100% | 100% | 100% | 100% | 90% | 100% | 100% | 100% | – | – | – | – | – | – | – | –
CC#Cc1cc(C)c(C2=C(OC(=O)C(C)C)C3(CCC(COC)C3)NC2=O)c(Br)c1 (stereo not drawn) [Example P-32] | 100% | 90% | 100% | 100% | 100% | 100% | 100% | 100% | 90% | 100% | 100% | – | 80% | 90% | 80% | 80% | 90% | 100% | 100% | 90%
CC#Cc1cc(C)c(C2=C(OC(=O)OCC)C3(CCC(COCC)C3)NC2=O)c(Br)c1 (stereo not drawn) [Example P-35] | 100% | 100% | 100% | 100% | 100% | 100% | 100% | 100% | 80% | 90% | 100% | 90% | – | 100% | – | – | 80% | 100% | 100% | –
CC#Cc1cc(C)c(C2=C(OC(=O)OCC)C3(CCC(COCC)C3)NC2=O)c(OC)c1 (stereo not drawn) [Example P-49] | 100% | 100% | 100% | 100% | 100% | 100% | 100% | 100% | 90% | 100% | 100% | 80% | – | – | 80% | – | 80% | 90% | 100% | –
C=CCOCC1CCC2(C1)NC(=O)C(c1c(C)cc(C#CC)cc1Cl)=C2OC(=O)OCC (stereo not drawn) [Example P-71] | 100% | 90% | 100% | 100% | 100% | 100% | 100% | 80% | 80% | 100% | 80% | 100% | – | – | – | 90% | 90% | 90% | 100% | –
C=CCOCC1CCC2(C1)NC(=O)C(c1c(C)cc(C#CC)cc1Cl)=C2OC(=O)OCC (stereo not drawn) [Example P-72] | 90% | – | 100% | 100% | 100% | 100% | 100% | 80% | – | 100% | 80% | 90% | – | – | – | 100% | 80% | 90% | 100% | –
CC#Cc1cc(F)c(C2=C(OC(=O)OCC)C3(CCC(COCCC)C3)NC2=O)c(OC)c1 (stereo not drawn) [Example P-82] | 100% | 90% | 100% | 100% | 100% | 100% | 90% | 100% | – | 100% | 100% | 80% | – | 90% | – | 100% | – | 90% | 100% | –
